The source of these data is US9067977B2, “Peptides derivatized with A-B-C-D- and their therapeutical use” (Novo Nordisk A/S, priority 2007, dated 2015).

Starred links: 1 amine or outer side, 2 acyl side, 3 side chain; linkers in the order of their positions; H or OH if unused. Non-standard residues stand in square brackets, D forms with d. Residues, ends and D or L forms follow the SMILES beside them. Groups on a side chain read outwards from the residue. *: point of attachment. X2 = O=C(O)CCCCCCCCCCCCCCCCCCC(=O)NCC1CCC(C(=O)*)CC1; C20 diacid = O=C(O)CCCCCCCCCCCCCCCCCCC(=O)*; γGlu = O=C(O)[C@H](CCC(=O)[*:2])N[*:1]; Desaminohistidyl = O=C(CCc1c[nH]cn1)*; βAsp = O=C(O)[C@H](CC(=O)[*:2])N[*:1]; AEEA = NCCOCCOCC(=O)O; Aib = CC(C)(N)C(=O)O; Inp = O=C(O)C1CCNCC1

This experiment deals with human serum albumin (HSA) (Homo sapiens, UniProt P02768). Briefly: Albumin binding affinity, competition scintillation proximity assay.
Sequence of human serum albumin (HSA) (P02768 25-609): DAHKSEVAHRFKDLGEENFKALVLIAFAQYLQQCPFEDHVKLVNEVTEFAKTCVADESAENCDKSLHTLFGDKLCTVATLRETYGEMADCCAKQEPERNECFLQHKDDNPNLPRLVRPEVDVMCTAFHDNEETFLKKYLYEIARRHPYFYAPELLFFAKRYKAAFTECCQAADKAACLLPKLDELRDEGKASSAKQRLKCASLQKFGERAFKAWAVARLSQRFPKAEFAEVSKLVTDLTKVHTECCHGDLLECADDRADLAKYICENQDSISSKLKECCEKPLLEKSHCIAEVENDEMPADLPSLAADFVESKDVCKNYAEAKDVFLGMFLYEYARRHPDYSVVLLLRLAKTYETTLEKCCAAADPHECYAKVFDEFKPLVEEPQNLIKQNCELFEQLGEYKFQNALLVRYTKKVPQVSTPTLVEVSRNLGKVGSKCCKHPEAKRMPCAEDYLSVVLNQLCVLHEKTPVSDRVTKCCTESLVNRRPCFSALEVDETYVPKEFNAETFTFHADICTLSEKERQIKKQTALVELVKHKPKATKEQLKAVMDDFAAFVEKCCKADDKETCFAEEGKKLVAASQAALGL
Description: Streptavidin-SPA beads (GE Healthcare RPNQ0009) were incubated with biotinylated HSA for 5 hours. The beads were washed with buffer to remove unbound HSA. […] After 20 hours of gentle rocking at room temperature the plates were centrifuged and counted on a TopCounter.
`CC[C@H](C)[C@H](NC(=O)[C@H](Cc1ccccc1)NC(=O)[C@H](CCC(=O)O)NC(=O)[C@H](CCCNC(=N)N)NC(=O)[C@H](C)NC(=O)[C@H](C)NC(=O)[C@H](CCC(N)=O)NC(=O)[C@H](CCC(=O)O)NC(=O)[C@H](CCC(=O)O)NC(=O)[C@H](CC(C)C)NC(=O)[C@H](Cc1ccc(O)cc1)NC(=O)[C@H](CO)NC(=O)[C@H](CO)NC(=O)[C@@H](NC(=O)[C@H](CC(=O)O)NC(=O)[C@H](CO)NC(=O)[C@@H](NC(=O)[C@H](Cc1ccccc1)NC(=O)[C@@H](NC(=O)CNC(=O)[C@H](CCC(=O)O)NC(=O)[C@H](C)NC(=O)CCc1c[nH]cn1)[C@@H](C)O)[C@@H](C)O)C(C)C)C(=O)N[C@@H](C)C(=O)N[C@@H](Cc1c[nH]c2ccccc12)C(=O)N[C@@H](CC(C)C)C(=O)N[C@H](C(=O)N[C@@H](CCCNC(=N)N)C(=O)NCC(=O)N[C@@H](CCCNC(=N)N)C(=O)NCC(=O)N[C@@H](CCCCNC(=O)COCCOCCNC(=O)COCCOCCNC(=O)CC[C@H](NC(=O)C1CCN(C(=O)CCCCCCCCCCCCCCCCCCC(=O)O)CC1)C(=O)O)C(N)=O)C(C)C` [Example 14, [DesaminoHis7,Glu22,Arg26,Arg34]GLP-1-(7-37)Lys[2-(2-[2-(2-[2-(2-((S)-4-[1-[19-Carboxynonadecanoyl]piperidine-4-carbonylamino]-4-carboxybutyrylamino)ethoxy)ethoxy]acetylamino)ethoxy]ethoxy)acetyl]amide] (Desaminohistidyl-AEGTFTSDVSSYLEEQAAREFIAWLVRGRGK([AEEA-AEEA-γGlu-Inp-C20 diacid])-NH2): the EC50 – broadly, the concentration at which the effect is half-maximal – was in the range of 300 to 800 nM. Regarding `CC[C@H](C)[C@H](NC(=O)[C@H](Cc1ccccc1)NC(=O)[C@H](CCC(=O)O)NC(=O)[C@H](CCCNC(=N)N)NC(=O)[C@H](C)NC(=O)[C@H](C)NC(=O)[C@H](CCC(N)=O)NC(=O)[C@H](CCC(=O)O)NC(=O)[C@H](CCC(=O)O)NC(=O)[C@H](CC(C)C)NC(=O)[C@H](Cc1ccc(O)cc1)NC(=O)[C@H](CO)NC(=O)[C@H](CO)NC(=O)[C@@H](NC(=O)[C@H](CC(=O)O)NC(=O)[C@H](CO)NC(=O)[C@@H](NC(=O)[C@H](Cc1ccccc1)NC(=O)[C@@H](NC(=O)CNC(=O)[C@H](CCC(=O)O)NC(=O)C(C)(C)NC(=O)[C@@H](N)Cc1c[nH]cn1)[C@@H](C)O)[C@@H](C)O)C(C)C)C(=O)N[C@@H](C)C(=O)N[C@@H](CCCCNC(=O)COCCOCCNC(=O)COCCOCCNC(=O)C[C@H](NC(=O)C1CCN(C(=O)CCCCCCCCCCCCCCCCCCC(=O)O)CC1)C(=O)O)C(=O)N[C@@H](CC(C)C)C(=O)N[C@H](C(=O)N[C@@H](CCCNC(=N)N)C(=O)NCC(=O)N[C@@H](CCCNC(=N)N)C(=O)NCC(=O)O)C(C)C` [Example 15, N-epsilon31-(2-{2-[2-(2-{2-[2-((S)-3-Carboxy-3-{[1-(19-carboxy-nonadecanoyl)piperidine-4-carbonyl]amino}propionylamino)ethoxy]ethoxy}acetylamino)ethoxy]ethoxy}acetyl)[Aib8,Glu22,Arg26,Lys31,Arg34]GLP-1-(7-37)] (H-H[Aib]EGTFTSDVSSYLEEQAAREFIAK([AEEA-AEEA-βAsp-Inp-C20 diacid])LVRGRG-OH), the EC50 lay within 150 to 300 nM. For `CC[C@H](C)[C@H](NC(=O)[C@H](Cc1ccccc1)NC(=O)[C@H](CCC(=O)O)NC(=O)[C@H](CCCNC(=N)N)NC(=O)[C@H](C)NC(=O)[C@H](C)NC(=O)[C@H](CCC(N)=O)NC(=O)[C@H](CCC(=O)O)NC(=O)[C@H](CCC(=O)O)NC(=O)[C@H](CC(C)C)NC(=O)[C@H](Cc1ccc(O)cc1)NC(=O)[C@H](CO)NC(=O)[C@H](CO)NC(=O)[C@@H](NC(=O)[C@H](CC(=O)O)NC(=O)[C@H](CO)NC(=O)[C@@H](NC(=O)[C@H](Cc1ccccc1)NC(=O)[C@@H](NC(=O)CNC(=O)[C@H](CCC(=O)O)NC(=O)C(C)(C)NC(=O)[C@@H](N)Cc1c[nH]cn1)[C@@H](C)O)[C@@H](C)O)C(C)C)C(=O)N[C@@H](C)C(=O)N[C@@H](Cc1c[nH]c2ccccc12)C(=O)N[C@@H](CC(C)C)C(=O)N[C@H](C(=O)N[C@@H](CCCNC(=N)N)C(=O)NCC(=O)N[C@@H](CCCNC(=N)N)C(=O)NCC(=O)N[C@@H](CCCCNC(=O)COCCOCCNC(=O)COCCOCCNC(=O)C[C@H](NC(=O)C1CCC(CNC(=O)CCCCCCCCCCCCCCCCCCC(=O)O)CC1)C(=O)O)C(N)=O)C(C)C` (stereo partly drawn) [Example 22, [Aib8,Glu22,Arg26,Arg34]GLP-1-(7-37)Lys[2-(2-[2-(2-[2-(2-((S)-3-[4-([19-Carboxynonadecanoylamino]methyl)cyclohexylcarbonylamino]-3-carboxypropionylamino)ethoxy)ethoxy]acetylamino)ethoxy]ethoxy)acetyl]amide] (H-H[Aib]EGTFTSDVSSYLEEQAAREFIAWLVRGRGK([AEEA-AEEA-βAsp-X2])-NH2; N-terminus assumed), the concentration for a half-maximal effect (EC50) lay within 150 to 300 nM. As to `CC[C@H](C)[C@H](NC(=O)[C@H](Cc1ccccc1)NC(=O)[C@H](CCC(=O)O)NC(=O)[C@H](CCCNC(=N)N)NC(=O)[C@H](C)NC(=O)[C@H](C)NC(=O)[C@H](CCC(N)=O)NC(=O)[C@H](CCC(=O)O)NC(=O)[C@H](CCC(=O)O)NC(=O)[C@H](CC(C)C)NC(=O)[C@H](Cc1ccc(O)cc1)NC(=O)[C@H](CO)NC(=O)[C@H](CO)NC(=O)[C@@H](NC(=O)[C@H](CC(=O)O)NC(=O)[C@H](CO)NC(=O)[C@@H](NC(=O)[C@H](Cc1ccccc1)NC(=O)[C@@H](NC(=O)CNC(=O)[C@H](CCC(=O)O)NC(=O)C(C)(C)NC(=O)[C@@H](N)Cc1c[nH]cn1)[C@@H](C)O)[C@@H](C)O)C(C)C)C(=O)N[C@@H](C)C(=O)N[C@@H](Cc1c[nH]c2ccccc12)C(=O)N[C@@H](CC(C)C)C(=O)N[C@H](C(=O)N[C@@H](CCCNC(=N)N)C(=O)NCC(=O)N[C@@H](CCCNC(=N)N)C(=O)N[C@@H](CCCCNC(=O)COCCOCCNC(=O)COCCOCCNC(=O)CC[C@H](NC(=O)[C@H]1CC[C@H](CNC(=O)CCCCCCCCCCCCCCCCCCC(=O)O)CC1)C(=O)O)C(N)=O)C(C)C` [Example 23, N-epsilon37-[2-(2-{2-[2-(2-{2-[(S)-4-Carboxy-4-({trans-4-[(19-carboxy-nonadecanoylamino)methyl]cyclohexanecarbonyl}amino)butyrylamino]ethoxy}ethoxy)acetylamino]ethoxy}ethoxy)acetyl][Aib8,Glu22,Arg26,Arg34,Lys37]GLP-1-(7-37)amide], the 50% effective concentration (EC50) was 800 to 2000 nM. Molecule `CC[C@H](C)[C@H](NC(=O)[C@H](Cc1ccccc1)NC(=O)[C@H](CCC(=O)O)NC(=O)[C@H](CCCNC(=N)N)NC(=O)[C@H](C)NC(=O)[C@H](C)NC(=O)[C@H](CCC(N)=O)NC(=O)[C@H](CCC(=O)O)NC(=O)[C@H](CCC(=O)O)NC(=O)[C@H](CC(C)C)NC(=O)[C@H](Cc1ccc(O)cc1)NC(=O)[C@H](CO)NC(=O)[C@H](CO)NC(=O)[C@@H](NC(=O)[C@H](CC(=O)O)NC(=O)[C@H](CO)NC(=O)[C@@H](NC(=O)[C@H](Cc1ccccc1)NC(=O)[C@@H](NC(=O)CNC(=O)[C@H](CCC(=O)O)NC(=O)[C@H](C)NC(=O)CCc1c[nH]cn1)[C@@H](C)O)[C@@H](C)O)C(C)C)C(=O)N[C@@H](C)C(=O)N[C@@H](Cc1c[nH]c2ccccc12)C(=O)N[C@@H](CC(C)C)C(=O)N[C@H](C(=O)N[C@@H](CCCNC(=N)N)C(=O)NCC(=O)N[C@@H](CCCNC(=N)N)C(=O)N[C@@H](CCCCNC(=O)COCCOCCNC(=O)COCCOCCNC(=O)CC[C@H](NC(=O)[C@H]1CC[C@H](CNC(=O)CCCCCCCCCCCCCCCCCCC(=O)O)CC1)C(=O)O)C(N)=O)C(C)C` [Example 24, N-epsilon37-[2-(2-{2-[2-(2-{2-[(S)-4-Carboxy-4-({trans-4-[(19-carboxy-nonadecanoylamino)methyl]cyclohexanecarbonyl}amino)butyrylamino]ethoxy}ethoxy)acetylamino]ethoxy}ethoxy)acetyl][DesaminoHis7,Glu22,Arg26,Arg34,Lys37]GLP-1-(7-37)amide] showed a concentration for a half-maximal effect (EC50) of 800 to 2000 nM. On to `CC[C@H](C)[C@H](NC(=O)[C@H](Cc1ccccc1)NC(=O)[C@H](CCC(=O)O)NC(=O)[C@H](CCCNC(=N)N)NC(=O)[C@H](C)NC(=O)[C@H](C)NC(=O)[C@H](CCC(N)=O)NC(=O)CNC(=O)[C@H](CCC(=O)O)NC(=O)[C@H](CC(C)C)NC(=O)[C@H](Cc1ccc(O)cc1)NC(=O)[C@H](CO)NC(=O)[C@H](CO)NC(=O)[C@@H](NC(=O)[C@H](CC(=O)O)NC(=O)[C@H](CO)NC(=O)[C@@H](NC(=O)[C@H](Cc1ccccc1)NC(=O)[C@@H](NC(=O)CNC(=O)[C@H](CCC(=O)O)NC(=O)[C@H](C)NC(=O)CCc1c[nH]cn1)[C@@H](C)O)[C@@H](C)O)C(C)C)C(=O)N[C@@H](C)C(=O)N[C@@H](Cc1c[nH]c2ccccc12)C(=O)N[C@@H](CC(C)C)C(=O)N[C@H](C(=O)N[C@@H](CCCNC(=N)N)C(=O)NCC(=O)N[C@@H](CCCNC(=N)N)C(=O)N[C@@H](CCCCNC(=O)COCCOCCNC(=O)COCCOCCNC(=O)CC[C@H](NC(=O)[C@H]1CC[C@H](CNC(=O)CCCCCCCCCCCCCCCCCCC(=O)O)CC1)C(=O)O)C(N)=O)C(C)C` [Example 25], for which the EC50 is > 2000 nM. As for `CC[C@H](C)[C@H](NC(=O)[C@H](Cc1ccccc1)NC(=O)[C@H](CCC(=O)O)NC(=O)[C@H](CCCNC(=N)N)NC(=O)[C@H](C)NC(=O)[C@H](C)NC(=O)[C@H](CCC(N)=O)NC(=O)[C@H](CCC(=O)O)NC(=O)[C@H](CCC(=O)O)NC(=O)[C@H](CC(C)C)NC(=O)[C@H](Cc1ccc(O)cc1)NC(=O)[C@H](CO)NC(=O)[C@H](CO)NC(=O)[C@@H](NC(=O)[C@H](CC(=O)O)NC(=O)[C@H](CO)NC(=O)[C@@H](NC(=O)[C@H](Cc1ccccc1)NC(=O)[C@@H](NC(=O)CNC(=O)[C@H](CCC(=O)O)NC(=O)[C@H](C)NC(=O)CCc1c[nH]cn1)[C@@H](C)O)[C@@H](C)O)C(C)C)C(=O)N[C@@H](C)C(=O)N[C@@H](Cc1c[nH]c2ccccc12)C(=O)N[C@@H](CC(C)C)C(=O)N[C@H](C(=O)N[C@@H](CCCNC(=N)N)C(=O)NCC(=O)N[C@@H](CCCNC(=N)N)C(=O)N[C@@H](CCCCNC(=O)COCCOCCNC(=O)COCCOCCNC(=O)CC[C@H](NC(=O)[C@H]1CC[C@H](CNC(=O)CCCCCCCCCCCCCCCCCCC(=O)O)CC1)C(=O)O)C(=O)O)C(C)C` [Example 26, N-epsilon37-[2-(2-{2-[2-(2-{2-[(S)-4-Carboxy-4-({trans-4-[(19-carboxy-nonadecanoylamino)methyl]cyclohexanecarbonyl}amino)butyrylamino]ethoxy}ethoxy)acetylamino]ethoxy}ethoxy)acetyl][DesaminoHis7,Glu22,Arg26,Arg34,Lys37]GLP-1-(7-37)], the figure is 800 to 2000 nM.
